Results: patent US5162354A, “3-halo-5-halomethyl-2-oxazolidinones and their use as microbicides” (Buckman Laboratories International, Inc., priority 1991, dated 1992)
Where two headings read alike, the source gives them in different places.

System: mixture of Staphylococcus aureus, Enterobacter aerogenes and Pseudomonas aeruginosa
Assay: Long-term effectiveness in water as disinfectant, basal salts method, mixture of test organisms
Assay type: cell-based
Conditions: read-out: % Reduction (Kill)
Protocol: In order to test the effectiveness of the compounds of the present invention over a period of 15 days, the following experiment was conducted using Compound 1.
The basal salts method described in U.S. Pat. No. 2,881,070 at column 5, beginning at line 12 and extending to column 6, line 53 was performed at two different pH values and percent kills were obtained with a mixture of test organisms (Staphylococcus aureus, Enterobacter aerogenes and Pseudomonas aeruginosa). […] At 80 ppm, prolonged sanitizing ability is maintained (99% or greater) with prolonged exposure times (24 hours contact through 15 […] post-preparation in water).
^a Control indicates the population of the test organism and is used
to make sure there is vigorous growth and to calculate % kills.

[1] = 10 min, pH 6, Day 1 after preparation in soft water, pH 6.0, 10 min contact
[2] = 10 min, pH 6, Day 2 after preparation in soft water, pH 6.0, 10 min contact
[3] = 10 min, pH 6, Day 3 after preparation in soft water, pH 6.0, 10 min contact
[4] = 10 min, pH 6, Day 4 after preparation in soft water, pH 6.0, 10 min contact
[5] = 10 min, pH 6, Day 5 after preparation in soft water, pH 6.0, 10 min contact
[6] = 10 min, pH 6, Day 14 after preparation in soft water, pH 6.0, 10 min contact
[7] = 10 min, pH 6, Day 15 after preparation in soft water, pH 6.0, 10 min contact
[8] = 10 min, pH 8, Day 1 after preparation in soft water, pH 8.0, 10 min contact
[9] = 10 min, pH 8, Day 2 after preparation in soft water, pH 8.0, 10 min contact
[10] = 10 min, pH 8, Day 3 after preparation in soft water, pH 8.0, 10 min contact
[11] = 10 min, pH 8, Day 4 after preparation in soft water, pH 8.0, 10 min contact
[12] = 10 min, pH 8, Day 5 after preparation in soft water, pH 8.0, 10 min contact
[13] = 10 min, pH 8, Day 14 after preparation in soft water, pH 8.0, 10 min contact
[14] = 10 min, pH 8, Day 15 after preparation in soft water, pH 8.0, 10 min contact
[15] = 24 h, pH 6, Day 1 after preparation in soft water, pH 6.0, 24 hours contact
[16] = 24 h, pH 6, Day 2 after preparation in soft water, pH 6.0, 24 hours contact

O=C1OC(CCl)CN1Br (centres unmarked) [Compound 1, 3-Bromo-5-chloromethyl-2-oxazolidinone]
killing at 40 ppm [1]: 100% | killing at 80 ppm [1]: 100% | killing at 40 ppm [2]: 100% | killing at 80 ppm [2]: 100% | killing at 40 ppm [3]: 100% | killing at 80 ppm [3]: 100% | killing at 40 ppm [4]: 38.8% | killing at 80 ppm [4]: 54.3% | killing at 40 ppm [5]: 26.8% | killing at 80 ppm [5]: 41.4% | killing at 40 ppm [6]: 40% | killing at 80 ppm [6]: 28.7% | killing at 40 ppm [7]: 39.3% | killing at 80 ppm [7]: 13.1% | killing at 40 ppm [8]: 100% | killing at 80 ppm [8]: 100% | killing at 40 ppm [9]: 100% | killing at 80 ppm [9]: 100% | killing at 40 ppm [10]: 100% | killing at 80 ppm [10]: 100% | killing at 40 ppm [11]: 34.2% | killing at 80 ppm [11]: 46% | killing at 40 ppm [12]: 51.8% | killing at 80 ppm [12]: 51.8% | killing at 40 ppm [13]: 69.5% | killing at 80 ppm [13]: 83.8% | killing at 40 ppm [14]: 68.6% | killing at 80 ppm [14]: 70.2% | killing at 40 ppm [15]: 100% | killing at 80 ppm [15]: 100% | killing at 40 ppm [16]: 100% | killing at 80 ppm [16]: 100%
